Assay results from patent publication US20240246946A1, “MODULATORS OF TREX1” (Constellation Pharmaceuticals, Inc., priority 2021, published 2024).

Assays:
full length human TREX1 [1] = target: T1, full length human TREX1 (Homo sapiens, UniProt Q9NSU2); test: hTREX1 Biochemical Assay (fluorescence, dsDNA substrate degradation); settings: biochemical, read-out: hTREX1 IC50
T1 construct: N-terminally His-Tev tagged full length human TREX1; made in house; host or cells: E. coli
T1 sequence (Q9NSU2 1-314): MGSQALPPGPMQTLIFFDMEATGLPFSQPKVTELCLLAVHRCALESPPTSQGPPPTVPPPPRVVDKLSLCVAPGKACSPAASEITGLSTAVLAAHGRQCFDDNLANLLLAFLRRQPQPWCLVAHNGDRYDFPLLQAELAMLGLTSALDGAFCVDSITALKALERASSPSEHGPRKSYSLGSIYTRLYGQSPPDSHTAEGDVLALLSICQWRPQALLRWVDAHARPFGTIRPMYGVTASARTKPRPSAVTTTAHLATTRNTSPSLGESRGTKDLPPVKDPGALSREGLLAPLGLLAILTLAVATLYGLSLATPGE
Outline: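 Fluorescence rises as enzyme degrades a quenched TEX615-labelled dsDNA substrate (60 nM) in 50 mM Tris, 150 mM NaCl, 5 mM MgCl2, pH 7.4. Full-length His-Tev-tagged human TREX1, 4 pM, sits with compound 4 hours at 25° C before substrate; reaction 18 hours, stopped with EDTA.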

hTREX1 = target: T2, hTREX1 (Homo sapiens, UniProt Q9NSU2); test: hTREX1 HCT116 Cell Assay (HCT116 dual cells, Lucia luciferase reporter of Type I interferon induction); format: cell-based; settings: TREX1i 4 h before pBR322/BstNI transfection, read after 48 h
T2 construct: host or cells: HCT116 dual cells
T2 sequence (Q9NSU2 1-314): T1 sequence (Q9NSU2 1-314)
Outline: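 Type I interferon induction read as secreted Lucia luciferase 48 h after transfecting pBR322/BstNI digest (1 ug/mL, 100 ng/well) into HCT116 dual reporter cells. Compound added 4 h before transfection at up to 0.1% DMSO; cells in DMEM/10% FBS/25 mM HEPES at 37 °C.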

full length human TREX1 [2] = target: T1, full length human TREX1; test: TREX1 Kinetics Assays (TR-FRET association and dissociation, global fit with Kintek Explorer); format: binding; settings: for Kd / residence time: hTREX1, TR-FRET kinetics; for koff / kon: hTREX1, TR-FRET, 25° C., global fit
Protocol: Compound binding kinetics were assessed using a pair of TR-FRET assays which measure the proportion of protein bound to a biotinylated TREX1 inhibitor (“probe”).
N-terminally His-Tev tagged full length human TREX1 (expressed in E. coli and purified in house), complexed with Eu-W1024-anti-6×His (“Eu”; PerkinElmer) in reaction buffer (50 mM Tris, 150 mM NaCl, 2 mM DTT, 0.1 mg/mL BSA, 0.01% (w/v) Tween-20, 5 mM MgCl2, pH 7.4) was combined with an equal volume of test compound in reaction buffer and incubated at 25° C. Concentrations at this stage were 1 nM TREX1/Eu complex, and four concentrations of compound (diluted from 10 mM stocks in 100% DMSO). At defined time points, 18 μL of this mixture was withdrawn and combined with 2 μL probe to a final concentration of 1 μM probe. After incubating for 30 seconds, 18 μL was withdrawn and combined with 2 μL streptavidin-allophycocyanin (“SA-APC”; PerkinElmer) to a final concentration of 1.5 μM SA-APC. Fifteen μL of this mixture was then immediately transferred to a 384-well Black ProxiPlate Plus (PerkinElmer) and read in an EnVision plate reader (PerkinElmer) measuring fluorescence at 615 nm and 665 nm following excitation w/337 nm laser light. Final concentrations were 0.8 nM TREX1/Eu complex, 0.9 μM probe, and 1.5 μM SA-APC.
N-terminally His-Tev tagged full length human TREX1 (expressed in E. coli and purified in house), complexed with Eu-W1024-anti-6×His (“Eu”; PerkinElmer) in reaction buffer (50 mM Tris, 150 mM NaCl, 2 mM DTT, 0.1 mg/mL BSA, 0.01% (w/v) Tween-20, 5 mM MgCl2, pH 7.4) was combined with an equal volume of test compound in reaction buffer. Concentrations at this stage were 100 nM TREX1/Eu complex and 100 nM test compound (diluted from 10 mM stocks in 100% DMSO). Following an equilibration period of at least an hour at 25° C., this mixture was diluted 100-fold into reaction buffer containing 1 μM probe, and incubated at 25° C. At defined time points, 36 μL of the reaction mixture was withdrawn and combined with 4 μL streptavidin-allophycocyanin (“SA-APC”; PerkinElmer) to a final concentration of 1.5 μM SA-APC. Fifteen μL of this mixture was then immediately transferred to duplicate wells of a 384-well Black ProxiPlate Plus (PerkinElmer) and read in an EnVision plate reader (PerkinElmer) measuring fluorescence at 615 nm and 665 nm following excitation w/337 nm laser light.
The TR-FRET signal, a ratio of 665 nm/615 nm emitted light, was converted to fraction enzyme bound to test compound by normalizing to low signal (no enzyme or test compound) and high signal (no test compound) controls. Data from both association and dissociation experiments were fitted globally using Kintek Explorer software, which computes the rate constants directly.

| Compound | IC50 (full length human TREX1 [1]) [nM] | IC50 (hTREX1) [nM] | Kd (full length human TREX1 [2]) [nM] | residence time (full length human TREX1 [2]) [min] | koff (full length human TREX1 [2]) [s⁻¹] | kon (full length human TREX1 [2]) [M⁻¹ s⁻¹] |
| --- | --- | --- | --- | --- | --- | --- |
| Cc1ncc(C(c2cc(F)ccc2C#N)C(C)c2nc(C(=O)Nc3cnoc3)c(O)c(=O)n2C)nc1C (single isomer, unassigned) [Example 124 D1E2] | < 1 | 10 to 100 |  | 741 | 2.25e-05 |  |
| CCn1cc(C(c2ccc(F)cc2C#N)C(C)c2nc(C(=O)Nc3cnoc3)c(O)c(=O)n2C)cn1 (single isomer, unassigned) [Example 16 D1E1] | < 1 | < 10 | 0.245 | 461 | 3.62e-05 | 147000 |
| CCn1cc(C(c2cc(F)ccc2C#N)C(C)c2nc(C(=O)Nc3cnoc3)c(O)c(=O)n2C)cn1 (single isomer, unassigned) [Example 17 D1E2] | < 1 | < 10 | 0.28 | 353 | 4.72e-05 | 168000 |
| Cc1cc(C(c2cc(F)ccc2C#N)C(C)c2nc(C(=O)Nc3cnoc3)c(O)c(=O)n2C)n(C)n1 (single isomer, unassigned) [Example 111 D1E2] | < 1 | 10 to 100 |  | 461 | 3.62e-05 |  |
| Cc1nc(C)c(C(c2ccccc2C#N)C(C)c2nc(C(=O)Nc3cnoc3)c(O)c(=O)n2C)nc1C (single isomer, unassigned) [Example 122 D1E1] | < 1 | < 10 |  | 1450 | 1.15e-05 |  |
| C[C@H](c1nc(C(=O)Nc2cnoc2)c(O)c(=O)n1C)[C@@H](c1cc(F)ccc1C#N)c1cn(C)nc1C#N [Example 59 D1E2] | < 1 | < 10 |  | 515 | 3.23e-05 |  |
| Cc1nn(C)c(C)c1C(c1ccccc1C#N)C(C)c1nc(C(=O)Nc2cnoc2)c(O)c(=O)n1C (single isomer, unassigned) [Example 78 D1E1] | < 1 | < 10 |  | 413 | 4.03e-05 |  |
| Cc1ncc(C(c2ccccc2Cl)C(C)c2nc(C(=O)Nc3cnoc3)c(O)c(=O)n2C)nc1C (single isomer, unassigned) [Example 125 D1E2] | < 1 | < 10 |  | 543 | 3.07e-05 |  |
| Cc1nn(C)cc1C(c1cc(F)ccc1C#N)C(C)c1nc(C(=O)Nc2cnoc2)c(O)c(=O)n1C (single isomer, unassigned) [Example 57 D1E2] | < 1 | < 10 |  | 431 | 3.87e-05 |  |
| Cc1cnc(C(c2cc(F)ccc2C#N)C(C)c2nc(C(=O)Nc3cnoc3)c(O)c(=O)n2C)cn1 (single isomer, unassigned) [Example 115 D1E2] | < 1 | < 10 |  | 515 | 3.23e-05 |  |
| Cc1ncc(C(c2ccccc2C#N)C(C)c2nc(C(=O)Nc3cnoc3)c(O)c(=O)n2C)nc1C (single isomer, unassigned) [Example 81 D1E2] | < 1 | < 10 |  | 714 | 2.33e-05 |  |

The next lines start with the values.

| IC50 (full length human TREX1 [1]) [nM] | IC50 (hTREX1) [nM] | Kd (full length human TREX1 [2]) [nM] | residence time (full length human TREX1 [2]) [min] | koff (full length human TREX1 [2]) [s⁻¹] | kon (full length human TREX1 [2]) [M⁻¹ s⁻¹] | Compound |
| --- | --- | --- | --- | --- | --- | --- |
| < 1 | < 10 | 0.614 | 256 | 6.5e-05 | 106000 | CC(c1nc(C(=O)Nc2cnoc2)c(O)c(=O)n1C)C(c1cnn(CC(F)(F)F)c1)c1ccccc1C#N (single isomer, unassigned) [Example 22 D1E1] |
| < 1 | 10 to 100 | 0.338 | 215 | 7.77e-05 | 230000 | CC(c1nc(C(=O)Nc2cnoc2)c(O)c(=O)n1C)C(c1cnn(C)c1)c1ccccc1Cl (single isomer, unassigned) [Example 77 D1E1] |
| < 1 | 10 to 100 |  | 505 | 3.3e-05 |  | CCn1c(C(C)C(c2cnn(C)c2)c2ccccc2C#N)nc(C(=O)Nc2cnoc2)c(O)c1=O (single isomer, unassigned) [Example 149 D1E2] |
| < 1 | < 10 | 0.245 | 310 | 5.38e-05 | 220000 | CC(c1nc(C(=O)Nc2cnoc2)c(O)c(=O)n1C)C(c1cnn(C)c1)c1cc(F)ccc1C#N (single isomer, unassigned) [Example 14 D1E2] |
| < 1 | < 10 | 0.209 | 370 | 4.5e-05 | 215000 | CCn1cc(C(c2ccccc2C#N)C(C)c2nc(C(=O)Nc3cnoc3)c(O)c(=O)n2C)cn1 (single isomer, unassigned) [Example 13 D1E1] |
| < 1 | 10 to 100 | 0.529 | 290 | 5.73e-05 | 108000 | CC(c1nc(C(=O)Nc2cnoc2)c(O)c(=O)n1C)C(c1cnn(CC2CC2)c1)c1ccccc1C#N (single isomer, unassigned) [Example 23 D1E2] |
| < 1 | < 10 | 0.231 | 368 | 4.53e-05 | 197000 | CC(c1nc(C(=O)Nc2cnoc2)c(O)c(=O)n1C)C(c1cnn(C)c1)c1ccccc1C#N (single isomer, unassigned) [Example 2 D1E1] |
| < 1 | 10 to 100 | 0.405 | 269 | 6.2e-05 | 153000 | CC(c1nc(C(=O)Nc2cnoc2)c(O)c(=O)n1C)C(c1cnn(C)c1)c1cc(Cl)ccc1C#N (single isomer, unassigned) [Example 26 D1E2] |
| < 1 | < 10 |  | 1820 | 9.17e-06 |  | CC(c1nc(C(=O)Nc2cnoc2)c(O)c(=O)n1C)C(c1ccccc1C#N)c1cn(C)nc1F (single isomer, unassigned) [Example 91 D1E1] |
| < 1 | < 10 | 0.351 | 290 | 5.73e-05 | 163000 | CC(c1nc(C(=O)Nc2cnoc2)c(O)c(=O)n1C)C(c1cnn(C(F)F)c1)c1ccccc1C#N (single isomer, unassigned) [Example 38 D1E1] |
| < 1 | < 10 | 0.036 | 613 | 2.72e-05 | 757000 | CC(c1nc(C(=O)Nc2cnoc2)c(O)c(=O)n1C)C(c1ccccc1C#N)c1cn(C)nc1C#N (single isomer, unassigned) [Example 10 D1E1] |
| < 1 | < 10 | 0.255 | 483 | 3.45e-05 | 135000 | Cc1cncc(C(c2ccccc2C#N)C(C)c2nc(C(=O)Nc3cnoc3)c(O)c(=O)n2C)n1 (single isomer, unassigned) [Example 53 D1E2] |
| < 1 | < 10 |  | 662 | 2.52e-05 |  | CC(c1nc(C(=O)Nc2cnoc2)c(O)c(=O)n1C)C(c1cnn(C(C)C)c1)c1ccccc1C#N (single isomer, unassigned) [Example 105 D1E2] |
